Holding throughout (type): functional
For assay [1], the system named is Acinetobacter baumannii. Put plainly: Antibacterial activity against Acinetobacter baumannii ATCC 19606 after 16 to 20 hrs by broth microdilution method. The following applies: ATCC 19606 = CIP 70.34 = JCM 6841.
The subject of assay [2] is Escherichia coli. In words: Antibacterial activity against Escherichia coli 700 expressing TolC after 16 to 20 hrs by broth microdilution method.
In assay [3] the test system is Escherichia coli. In words: Antibacterial activity against TolC deficient Escherichia coli 701 after 16 to 20 hrs by broth microdilution method.
For assay [4], the system named is Pseudomonas aeruginosa. Put plainly: Antibacterial activity against Pseudomonas aeruginosa PAO1 after 16 to 20 hrs by broth microdilution method.
Assay [5] concerns Stenotrophomonas maltophilia. Put plainly: Antibacterial activity against Stenotrophomonas maltophilia ATCC 13637 after 16 to 20 hrs by broth microdilution method.
The test system of assay [6] is Klebsiella pneumoniae. Put plainly: Antibacterial activity against Klebsiella pneumoniae 13882 after 16 to 20 hrs by broth microdilution method.
Assay [7] deals with Klebsiella pneumoniae. In words: Antibacterial activity against Klebsiella pneumoniae 700603 after 16 to 20 hrs by broth microdilution method.
For assay [8], the system named is Bacillus subtilis. Put plainly: Antibacterial activity against Bacillus subtilis BD54 after 16 to 20 hrs by broth microdilution method.
Assay [9] relates to Bacillus anthracis. Put plainly: Antibacterial activity against Bacillus anthracis Sterne after 16 to 20 hrs by broth microdilution method.
Assay [10] relates to Staphylococcus aureus. In words: Antibacterial activity against Staphylococcus aureus ATCC 25923 after 16 to 20 hrs by broth microdilution method.
In assay [11] the test system is Staphylococcus aureus. In words: Antibacterial activity against methicillin-resistant Staphylococcus aureus 1094 after 16 to 20 hrs by broth microdilution method.
Assay [12] concerns Enterococcus faecalis. In words: Antibacterial activity against Enterococcus faecalis ATCC 29212 after 16 to 20 hrs by broth microdilution method.
The test system of assay [13] is Enterococcus faecalis. In words: Antibacterial activity against vancomycin-resistant Enterococcus faecalis ATCC 51575 after 16 to 20 hrs by broth microdilution method.
Assay [14] relates to Burkholderia cepacia. Put plainly: Antibacterial activity against Burkholderia cepacia 39277 after 16 to 20 hrs by broth microdilution method.
Assay [15] deals with Burkholderia cepacia. In words: Antibacterial activity against Burkholderia cepacia 55792 after 16 to 20 hrs by broth microdilution method.
Assay [16] concerns Pseudomonas aeruginosa. Put plainly: Antibacterial activity against DmexAB-oprM deletion mutant of Pseudomonas aeruginosa PAO1 after 16 to 20 hrs by broth microdilution method.
The mark [17] stands for this setting: Bacillus subtilis, BD54, read-out: MIC.

In brackets after ≈: the same amount, converted by molar mass.

For `CC(C)C(O)C(=O)Cc1c[nH]c2ccccc12` (single isomer, unassigned; (-)), the MIC in assay [1], in assay [2], in [3], in assay [4], in assay [5] and in assay [6] was above 80 µg/mL throughout. In addition, the MIC in assay [7], in [8] (setting [17]), in [9], in assay [10] and in [11] was above 80 µg/mL each time.

On to `CC(=O)OC(Cc1c[nH]c2ccccc12)C(=O)C(C)C` (centres undefined), for which the MIC in [1], in assay [2], in assay [3], in assay [4], in assay [5] and in [6] was above 80 µg/mL throughout. Moreover, the MIC in assay [7] was above 80 µg/mL; in assay [8] (setting [17]), above 80 µg/mL; in assay [9] it was above 80 µg/mL; in assay [10], above 90 µg/mL; in assay [11] it was above 80 µg/mL; in assay [12], above 80 µg/mL. Moreover, the MIC in assay [13], in assay [14] and in [15] was above 80 µg/mL each time.

Turning to `CC(=O)OC(C(=O)Cc1c[nH]c2ccccc12)C(C)C` (centres undefined), the MIC in [1], in assay [2], in assay [3], in assay [4], in assay [5] and in [6] was above 80 µg/mL throughout. In addition, the MIC in assay [7], in assay [8] (setting [17]), in [9], in [10], in assay [11] and in assay [12] was above 80 µg/mL in each case. The MIC in [13], in assay [14] and in [15] was above 80 µg/mL in each case.

Take `CC(C)C(=O)C(O)Cc1c[nH]c2ccccc12` (single isomer, unassigned; (+)): the MIC in [1], in [2], in assay [3], in assay [4], in assay [5] and in assay [6] was above 80 µg/mL throughout. The MIC in [7], in assay [8] (setting [17]), in assay [9], in assay [10], in [11] and in [12] was above 80 µg/mL each time. Besides, the MIC in assay [13], in assay [14] and in assay [15] was above 80 µg/mL each time.

Take `O=C(O)c1cn(C2CC2)c2cc(N3CCNCC3)c(F)cc2c1=O` [CIPROFLOXACIN]: the MIC was 1.25 µg/mL (≈ 3.77 µM) in assay [1]; 0.313 µg/mL (≈ 0.945 µM) in [4]; 20 µg/mL (≈ 60.4 µM) in assay [16]; 0.313 µg/mL (≈ 0.945 µM) in [5]; 0.078 µg/mL (≈ 0.235 µM) in assay [6]; 0.313 µg/mL (≈ 0.945 µM) in assay [7]. In addition, the MIC in assay [8] (setting [17]) was determined as 0.078 µg/mL (≈ 0.235 µM); in [10], 469 µg/mL (≈ 1420 µM); in assay [11] it was 20 µg/mL (≈ 60.4 µM); in assay [12], 1.9 µg/mL (≈ 5.73 µM); in [13], 0.625 µg/mL (≈ 1.89 µM); in assay [14], 0.078 µg/mL (≈ 0.235 µM). The same compound showed an MIC in assay [15] of 0.039 µg/mL (≈ 0.118 µM).

As to `CC(C)C(O)C(=O)Cc1c[nH]c2ccccc12` (single isomer, unassigned; (+)), the MIC in assay [8] is above 40 µg/mL; in [12], above 80 µg/mL; in [13], above 80 µg/mL; in assay [14], above 80 µg/mL; in assay [15], above 80 µg/mL.

For the origin of these results see ChEMBL document CHEMBL1268874, “A concise, total synthesis and antibacterial evaluation of 2-hydroxy-1-(1H-indol-3-yl)-4-methylpentan-3-one” (2010).
